Source: patent US20250154127A1, “BICYCLIC HETEROARYL COMPOUNDS AND USES THEREOF” (ETERN BIOPHARMA (SHANGHAI) CO., LTD., priority 2022, published 2025)

How the values were obtained:
[1] = target: TEAD1(210-426) binding to YAP(50-100) (Homo sapiens, UniProt P28347); assay: TR-FRET Assay for TEAD1(210-426) Binding to YAP(50-100); settings: His-TEAD 10 nM, YAP-Biotin peptide 50 nM
Protocol: Compounds were performed 3 fold serial dilution, 12 data points, added to 384 well white plate. The final DMSO concentration is 1%, duplicate for each concentration. Then His-TEAD protein was added to a final concentration of 10 nM, and allowed to preincubate for 30 minutes at room temperature. Assay buffer was added as background control.
YAP-Biotin peptide was added to a final concentration of 50 nM, mixed well, incubate 10 minutes at room temperature. The YAP(50-100) peptide sequence used here is named SEQ ID NO: 2
The Europium-labeled anti-6×His antibody and APC labeled streptavidin were diluted according to the instructions, this detection solution was mixed 1:1 with reaction solution, incubated 1 hour at room temperature.
TR-FRET measurements were made on an Envision (Perkin Elmer), using an excitation wavelength of 320 nm and emissions read at 620 nm and 665 nm. The ratio of the 665 nm to the 620 nm multiply 10000 provides a normalized TR-FRET signal that represents the extent of binding.
Half inhibition concentration IC50 value was calculated by XLfit software.

[2] = system: MSTO-211H cells; assay: Proliferation Assay (CellTiter-Glo Luminescent Cell Viability Assay); format: cell-based; settings: Homo sapiens, 96 hours treatment
Protocol: Example 5: Proliferation Assay
The effect of compound on YAP driven cancer cells proliferation was assessed in MSTO-211H (ATCC, CRL-2081TM) or NCI-H2052 (ATCC, CRL-5915TM) cells using CellTiter-Glo Luminescent Cell Viability Assay (Promega, G7570).
Briefly, individual cell lines were seeded in 96-well cell culture plate at the density of 1,500 cells per well and cultured in RPMII1640 (Gibco-A10491-01)+10% FBS (Gibco-10099-141C)+1% Penicillin-Streptomycin (5,000 U/mL, Gibco-15070-063) overnight at 37° C. with 5% CO2 before adding the compounds.
Following incubation, serial dilutions of compounds dissolved in DMSO were added to each well (3-fold dilution with 9 concentration points). The final concentration of DMSO present in this assay is below 0.5% and make duplication for each compound treated well.
Following 96 hours treatment, compound mediated cell growth inhibition was measured using CellTiter-Go Luminescent Cell Viability Assay (Promega, G7570). […] CellTiter-Glo in each assay well, mix and incubate at room temperature for 10 min. Read signal using EnVision® Multilabel Plate Reader (Perkin Elmer).
For data analysis, cell proliferation inhibition was calculated using the following formula:
Inhibition %=(1−(Compound treated well CTG signal/DMSO well CTG signal))*100.
IC50 values were calculated using GraphPad Prism software using a four-parameter fit model.

Sequence of TEAD1(210-426) binding to YAP(50-100) (P28347 209-426): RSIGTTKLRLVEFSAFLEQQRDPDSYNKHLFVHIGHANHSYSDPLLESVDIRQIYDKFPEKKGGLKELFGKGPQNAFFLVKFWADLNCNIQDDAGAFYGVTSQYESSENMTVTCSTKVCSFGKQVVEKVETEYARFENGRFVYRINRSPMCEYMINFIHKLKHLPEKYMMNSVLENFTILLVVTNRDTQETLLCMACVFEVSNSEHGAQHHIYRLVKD

## O=c1cc(-c2nn(-c3ccc(C(F)(F)F)cc3)c3ccccc23)ccn1Cc1ccncc1 [Compound 19, 1-(pyridin-4-ylmethyl)-4-(1-(4-(trifluoromethyl)phenyl)-1H-indazol-3-yl)pyridin-2(1H)-one]
[1]
  IC50: ≤ 0.1 µM
[2]
  IC50: ≤ 1 µM

## C[C@@H](c1ccccn1)n1ccc(-c2nn(-c3ccc(C(F)(F)F)cc3)c3ncccc23)cc1=O [Compound 20, (S)-1-(1-(pyridin-2-yl)ethyl)-4-(1-(4-(trifluoromethyl)phenyl)-1H-pyrazolo[3,4-b]pyridin-3-yl)pyridin-2(1H)-one]
[1]
  IC50: ≤ 0.1 µM
[2]
  IC50: ≤ 1 µM

## C[C@@H](c1ccccn1)n1ccc(-c2nn(-c3ccc(C(F)(F)F)cc3)c3ccc(CO)cc23)cc1=O [Compound 24]
[1]
  IC50: ≤ 0.1 µM
[2]
  IC50: ≤ 1 µM

## C[C@@H](c1ccccn1)n1ccc(-c2nn(-c3ccc(C(F)(F)F)cc3)c3cc(CO)ccc23)cc1=O [Compound 28, (S)-4-(6-(hydroxymethyl)-1-(4-(trifluoromethyl)phenyl)-1H-indazol-3-yl)-1-(1-(pyridin-2-yl)ethyl)pyridin-2(1H)-one]
[1]
  IC50: ≤ 0.1 µM
[2]
  IC50: ≤ 1 µM

## C[C@@H](c1ccccn1)n1ccc(-c2nn(-c3ccc(C(F)(F)F)cc3)c3cc(C(=O)O)ccc23)cc1=O [Compound 29, (S)-3-(2-oxo-1-(1-(pyridin-2-yl)ethyl)-1,2-dihydropyridin-4-yl)-1-(4-(trifluoromethyl)phenyl)-1H-indazole-6-carboxylic acid]
[1]
  IC50: > 1 µM
[2]
  IC50: ≤ 1 µM

## C[C@@H](c1ccccn1)n1ccc(-c2nn(-c3ccc(C(F)(F)F)cc3)c3cc(C(N)=O)ccc23)cc1=O [Compound 30, (S)-3-(2-oxo-1-(1-(pyridin-2-yl)ethyl)-1,2-dihydropyridin-4-yl)-1-(4-(trifluoromethyl)phenyl)-1H-indazole-6-carboxamide]
[1]
  IC50: > 1 µM
[2]
  IC50: ≤ 1 µM

## C[C@@H](c1ccccn1)n1ccc(-c2nn(-c3ccc(C(F)(F)F)cc3)c3cc(C#N)ccc23)cc1=O [Compound 31, (S)-3-(2-oxo-1-(1-(pyridin-2-yl)ethyl)-1,2-dihydropyridin-4-yl)-1-(4-(trifluoromethyl)phenyl)-1H-indazole-6-carbonitrile]
[1]
  IC50: > 1 µM
[2]
  IC50: ≤ 1 µM

## C[C@@H](c1ccccn1)n1ccc(-c2nn(-c3ccc(C(F)(F)F)cc3)c3ccc(F)cc23)cc1=O [Compound 33, (S)-4-(5-fluoro-1-(4-(trifluoromethyl)phenyl)-1H-indazol-3-yl)-1-(1-(pyridin-2-yl)ethyl)pyridin-2(1H)-one]
[1]
  IC50: ≤ 0.1 µM
[2]
  IC50: ≤ 1 µM

## COc1ccc2c(c1)c(-c1ccn([C@@H](C)c3ccccn3)c(=O)c1)nn2-c1ccc(C(F)(F)F)cc1 [Compound 34, (S)-4-(5-methoxy-1-(4-(trifluoromethyl)phenyl)-1H-indazol-3-yl)-1-(1-(pyridin-2-yl)ethyl)pyridin-2(1H)-one]
[1]
  IC50: ≤ 0.1 µM
[2]
  IC50: ≤ 1 µM

## Cn1nccc1Cn1ccc(-c2nn(-c3ccc(C(F)(F)F)cc3)c3ccccc23)cc1=O [Compound 37, 1-((1-methyl-1 H-pyrazol-5-yl)methyl)-4-(1-(4-(trifluoromethyl)phenyl)-1H-indazol-3-yl)pyridin-2(1H)-one]
[1]
  IC50: ≤ 0.1 µM
[2]
  IC50: ≤ 1 µM

## Cn1ccc(Cn2ccc(-c3nn(-c4ccc(C(F)(F)F)cc4)c4ccccc34)cc2=O)n1 [Compound 38, 1-((1-methyl-1H-pyrazol-3-yl)methyl)-4-(1-(4-(trifluoromethyl)phenyl)-1H-indazol-3-yl)pyridin-2(1H)-one]
[1]
  IC50: ≤ 0.1 µM
[2]
  IC50: ≤ 1 µM

## Cn1cncc1Cn1ccc(-c2nn(-c3ccc(C(F)(F)F)cc3)c3ccccc23)cc1=O [Compound 39, 1-((1-methyl-1H-imidazol-5-yl)methyl)-4-(1-(4-(trifluoromethyl)phenyl)-1H-indazol-3-yl)pyridin-2(1H)-one]
[1]
  IC50: > 1 µM
[2]
  IC50: ≤ 1 µM

## C[C@@H](c1ccccn1)n1ccc(-c2nn(-c3ccc(C(F)(F)F)nc3)c3cccnc23)cc1=O [Compound 40, (S)-1-(1-(pyridin-2-yl)ethyl)-4-(1-(6-(trifluoromethyl)pyridin-3-yl)-1H-pyrazolo[4,3-b]pyridin-3-yl)pyridin-2(1H)-one]
[1]
  IC50: > 1 µM
[2]
  IC50: ≤ 1 µM

## Cn1ccc(Cn2ccc(-n3nc(-c4ccc(C(F)(F)F)cc4)c4ncccc43)cc2=O)n1 [Compound 41, 1-((1-methyl-1H-pyrazol-3-yl)methyl)-4-(3-(4-(trifluoromethyl)phenyl)-1H-pyrazolo[4,3-b]pyridin-1-yl)pyridin-2(1H)-one]
[1]
  IC50: ≤ 0.1 µM
[2]
  IC50: ≤ 1 µM

## CNc1nccc(Cn2ccc(-n3nc(-c4ccc(C(F)(F)F)cc4)c4ncccc43)cc2=O)n1 [Compound 42, 1-((2-(methylamino)pyrimidin-4-yl)methyl)-4-(3-(4-(trifluoromethyl)phenyl)-1H-pyrazolo[4,3-b]pyridin-1-yl)pyridin-2(1H)-one]
[1]
  IC50: ≤ 0.1 µM
[2]
  IC50: ≤ 1 µM

## Cn1ccnc1Cn1ccc(-n2nc(-c3ccc(C(F)(F)F)cc3)c3ncccc32)cc1=O [Compound 43, 1-((1-methyl-1H-imidazol-2-yl)methyl)-4-(3-(4-(trifluoromethyl)phenyl)-1H-pyrazolo[4,3-b]pyridin-1-yl)pyridin-2(1H)-one]
[1]
  IC50: 0.1 to 1 µM
[2]
  IC50: ≤ 1 µM

## O=c1cc(-c2nn(-c3ccc(C(F)(F)F)cc3)c3ncccc23)ccn1Cc1ccnc(NC2CC2)n1 [Compound 44, 1-((2-(cyclopropylamino)pyrimidin-4-yl)methyl)-4-(1-(4-(trifluoromethyl)phenyl)-1H-pyrazolo[3,4-b]pyridin-3-yl)pyridin-2(1H)-one]
[1]
  IC50: ≤ 0.1 µM
[2]
  IC50: ≤ 1 µM

## O=c1cc(-n2nc(-c3ccc(C(F)(F)F)cc3)c3ncccc32)ccn1Cc1ccn(CCO)n1 [Compound 45]
[1]
  IC50: ≤ 0.1 µM
[2]
  IC50: ≤ 1 µM

## O=c1cc(-n2nc(-c3ccc(C(F)(F)F)cc3)c3ncccc32)ccn1Cc1ccnc(NCCO)n1 [Compound 46, 1-((2-((2-hydroxyethyl)amino)pyrimidin-4-yl)methyl)-4-(3-(4-(trifluoromethyl)phenyl)-1H-pyrazolo[4,3-b]pyridin-1-yl)pyridin-2(1H)-one]
[1]
  IC50: ≤ 0.1 µM
[2]
  IC50: ≤ 1 µM

## CN(CCO)c1nccc(Cn2ccc(-n3nc(-c4ccc(C(F)(F)F)cc4)c4ncccc43)cc2=O)n1 [Compound 47, 1-((2-((2-hydroxyethyl)(methyl)amino)pyrimidin-4-yl)methyl)-4-(3-(4-(trifluoromethyl)phenyl)-1H-pyrazolo[4,3-b]pyridin-1-yl)pyridin-2(1H)-one]
[1]
  IC50: ≤ 0.1 µM
[2]
  IC50: ≤ 1 µM

## CNc1ccnc(Cn2ccc(-n3nc(-c4ccc(C(F)(F)F)cc4)c4ncccc43)cc2=O)n1 [Compound 48, 1-((4-(methylamino)pyrimidin-2-yl)methyl)-4-(3-(4-(trifluoromethyl)phenyl)-1H-pyrazolo[4,3-b]pyridin-1-yl)pyridin-2(1H)-one]
[1]
  IC50: ≤ 0.1 µM
[2]
  IC50: ≤ 1 µM

## CNc1ccnc(Cn2ccc(-n3nc(-c4ccc(C(F)(F)F)cc4)c4nccnc43)cc2=O)n1 [Compound 49, 1-((4-(methylamino)pyrimidin-2-yl)methyl)-4-(3-(4-(trifluoromethyl)phenyl)-1H-pyrazolo[3,4-b]pyrazin-1-yl)pyridin-2(1H)-one]
[1]
  IC50: ≤ 0.1 µM
[2]
  IC50: ≤ 1 µM

## O=c1cc(-n2nc(-c3ccc(C(F)(F)F)cc3)c3nccnc32)ccn1Cc1ccnc(NCCO)n1 [Compound 50, 1-((2-((2-hydroxyethyl)amino)pyrimidin-4-yl)methyl)-4-(3-(4-(trifluoromethyl)phenyl)-1H-pyrazolo[3,4-b]pyrazin-1-yl)pyridin-2(1H)-one]
[1]
  IC50: ≤ 0.1 µM
[2]
  IC50: ≤ 1 µM

## CNc1nccc(Cn2ccc(-n3nc(-c4ccc(C(F)(F)F)cc4)c4nccnc43)cc2=O)n1 [Compound 51, 1-((2-(methylamino)pyrimidin-4-yl)methyl)-4-(3-(4-(trifluoromethyl)phenyl)-1H-pyrazolo[3,4-b]pyrazin-1-yl)pyridin-2(1H)-one]
[1]
  IC50: ≤ 0.1 µM
[2]
  IC50: ≤ 1 µM

## CN(CCO)c1nccc(Cn2ccc(-n3nc(-c4ccc(C(F)(F)F)cc4)c4nccnc43)cc2=O)n1 [Compound 52, 1-((2-((2-hydroxyethyl)(methyl)amino)pyrimidin-4-yl)methyl)-4-(3-(4-(trifluoromethyl)phenyl)-1H-pyrazolo[3,4-b]pyrazin-1-yl)pyridin-2(1H)-one]
[1]
  IC50: ≤ 0.1 µM
[2]
  IC50: ≤ 1 µM
